The source made the active and inactive calls.
Columns and labels:
A-375 = test: Antiproliferative activity against human A375 cells up to 100 uM by Celltiter-Glo assay; assay type: functional, cell-based
Cytomegalovirus = test: Antiviral activity against CMV assessed as inhibition of viral replication by cell-based assay; assay type: functional, organism-based
HCT cell line = test: Antiproliferative activity against human HCT cells up to 100 uM by Celltiter-Glo assay; assay type: functional, cell-based
Human alphaherpesvirus 3 = test: Antiviral activity against VZV assessed as inhibition of viral replication by cell-based assay; assay type: functional, organism-based
Human gammaherpesvirus 4 = test: Antiviral activity against EBV assessed as inhibition of viral replication by cell-based assay; assay type: functional, organism-based
SW480 = test: Antiproliferative activity against human SW480 cells up to 100 uM by Celltiter-Glo assay; assay type: functional, cell-based
Human alphaherpesvirus 1 = test: Antiviral activity against HSV1 assessed as inhibition of viral replication by cell-based assay; assay type: functional, organism-based

O=c1ccn([C@@]23C[C@@H]2C[C@@H](CO)O3)c(=O)[nH]1
inactive: Activity (A-375) | inhibition (Cytomegalovirus) | Activity (HCT cell line) | inhibition (Human alphaherpesvirus 3) | inhibition (Human gammaherpesvirus 4) | Activity (SW480) | inhibition (Human alphaherpesvirus 1)

CC(C)OC(=O)[C@H](C)NP(=O)(OC[C@@H]1C[C@H]2C[C@@]2(n2ccc(N)nc2=O)O1)Oc1ccccc1 (stereo partly drawn)
inactive: Activity (A-375) | inhibition (Cytomegalovirus) | Activity (HCT cell line) | inhibition (Human alphaherpesvirus 3) | inhibition (Human gammaherpesvirus 4) | Activity (SW480) | inhibition (Human alphaherpesvirus 1)

Nc1ccn([C@@]23C[C@@H]2C[C@@H](CO)O3)c(=O)n1
inactive: Activity (A-375) | inhibition (Cytomegalovirus) | Activity (HCT cell line) | inhibition (Human alphaherpesvirus 3) | inhibition (Human gammaherpesvirus 4) | Activity (SW480) | inhibition (Human alphaherpesvirus 1)

CC(C)OC(=O)[C@H](C)NP(=O)(OC[C@@H]1C[C@H]2C[C@@]2(n2ccc(=O)[nH]c2=O)O1)Oc1ccccc1 (stereo partly drawn)
inactive: Activity (A-375) | inhibition (Cytomegalovirus) | Activity (HCT cell line) | inhibition (Human alphaherpesvirus 3) | inhibition (Human gammaherpesvirus 4) | Activity (SW480) | inhibition (Human alphaherpesvirus 1)

Reference: ChEMBL document CHEMBL4330123, “Synthesis of 1',2'-methano-2',3'-dideoxynucleosides as potential antivirals” (Bioorg Med Chem Lett, 2019)
